Data taken from patent publication US20250032468A1, “OCULAR SURFACE TOPICAL ADMINISTRATION OF ROFLUMILAST FOR TREATMENT OF ANTERIOR AND RETINAL-VITREOUS CHAMBER OCULAR DISEASES” (IOLYX THERAPEUTICS, INC., priority 2023, published 2025).
Read-outs that look alike come from different tables or passages of the source.

Assays:
[1] = 13-week repeated topical ocular administration toxicity study in rabbits (Example 11); conditions: for intraocular pressure: FIG. 15
Procedure: (§1) A study was conducted to evaluate toxicity outcomes of repeated topical ocular administration of roflumilast. Male and female New Zealand white rabbits (n=7 per group) were administered: (a) vehicle-based placebo three times a day; (b) a 0.1% w/v roflumilast formulation (Example 3) three times a day; (c) a 0.3% w/v roflumilast formulation (Example 3) three times a day; or (d) a 1.0% w/v roflumilast formulation (Example 3) three times a day. In the study, male and female New Zealand White rabbits received 13 weeks of topical treatment, three times a day, followed by a four-week recovery period, in four dose arms, 0%, 0.1%, 0.3%, and 1% concentration of roflumilast. In addition to regular safety and well-being checks, animals were given regular ophthalmic exams, measurement of weight, tonometry to test intraocular pressure, clinical chemistry and hematological evaluation, and other routine checks of health and well being. At the point of study termination, ocular tissues and major organs were tested for macro- and microscopic observation. […] Parameters evaluated included body weight, intraocular pressure (IOP), and central corneal thickness (CCT).

[2] = Ocular tissue concentration of roflumilast after 5 days topical ocular dosing (Example 8, Table 7); format: in vivo, Dutch belted rabbits
Procedure: Two unique animal studies were conducted to assess the concentration of roflumilast in various tissues following administration of different concentrations of Example 3. The concentration in various tissues was assessed following five days of administration of the following dosing regimens: (a) 1% w/v roflumilast three times a day (TID); (b) 0.3% w/v roflumilast three times a day (TID); or (c) 0.1% w/v roflumilast two times a day (BID). In one study encompassing (a) and (b), n=6 Dutch belted rabbits per dose arm were dosed topically three times per day according to arm on days 1 to 4, and on day 5, a single dose was given at hour 0. In a different study with the same methodologies and practices, n=21 Dutch belted rabbits represented in group (c) were dosed two times per day on days 1 to 4, and on day 5, a single dose was given at hour 0. […] In the original study conducted solely with arm (c), a dose curve was created using time points at 0.5, 2, 4, 8, and 24 hours. To reduce the number of animals in the second experiment, for group (a) and (b), only 0.5 and 8 hours were tested. FIG. 1 provides data for the concentration of roflumilast (ng/g) in the iris ciliary body (ICB) as a function of time following: (a) 1% w/v roflumilast administered three times a day; (b) 0.3% w/v roflumilast administered three times a day; or (c) 0.1% w/v roflumilast administered two times a day. FIG. 2 provides data for the concentration of roflumilast (ng/g) in the aqueous humor (AH) as a function of time following: (a) 1% w/v roflumilast administered three times a day; (b) 0.3% w/v roflumilast administered three times a day; or (c) 0.1% w/v roflumilast administered two times a day. FIG. 3 provides data for the concentration of roflumilast (ng/g) in the retina/choroid/retina pigment epithelium (RPE) as a function of time following: (a) 1% w/v roflumilast administered three times a day; (b) 0.3% w/v roflumilast administered three times a day; or (c) 0.1% w/v roflumilast administered two times a day. […] (Claveau, 2004) This ratio is shown at both 0.5 hours, closest to a Cmax time point, and 8 hrs, which would be a time point close to a redosing time point for a TID dosing.

[3] = Saturation concentration of roflumilast in the suspension formulation; format: physicochemical; conditions: formulation characteristic used in the simulation
Procedure: Computational modeling of topical ophthalmic roflumilast dosing was carried out using an ocular simulation computer program based on Matlab® (Mathworks, Natick, MA) programming language using a runtime Java® applet for a graphical user-friendly interface. Physiological and anatomic parameters for the ocular simulation were customized to model the pigmented rabbit eye, by entering appropriate volumes of distribution and surface areas of anterior and posterior compartment tissues. […] Based on these parameters, theoretical calculations were carried out for all simulations, while for matching concentrations with actual experimental data the model was used for comparison, fitting, and optimization.

[4] = Ocular pigment binding, equilibrium sepia melanin association (Covance, method by Koeberle et al.); format: in vitro ADME
[5] = rabbit, in vivo
Procedure: as §1

[6] = test system: PDE4 A, B, D; conditions: also printed as 0.07 ng/g; cited from earlier work
[7] = dog, in vivo
[8] = 13-week repeated topical ocular administration study in dogs (Example 10)

O=C(Nc1c(Cl)cncc1Cl)c1ccc(OC(F)F)c(OCC2CC2)c1 [Roflumilast, N-(3,5-dichloropyrid-4-yl)-3-cyclopropylmethoxy-4-difluoromethoxybenzamide]
major clinical or pathological findings in life or post-mortem ([1]; New Zealand White rabbits, 0.1%, 0.3%, 1% TID topical ocular, 13 weeks plus four-week recovery): no major test article related findings
intraocular pressure ([1]; rabbits, 0.1% w/v TID, day 28, only transiently, still within a normal range): higher
systemic adverse effect on the eye or other organs (ophthalmic and other exams) ([1]; rabbits, 0.1%, 0.3%, 1.0% w/v TID): little to no systemic adverse effect
body weight ([1]; rabbits, all concentrations TID, compared to vehicle-based placebo, FIG. 14): did not lose weight
central corneal thickness ([1]; rabbits, all treatment groups, FIG. 16): substantially the same for all treatment groups
intraocular pressure ([1]; rabbits, all treatment groups, remaining days): substantially the same for all treatment groups
Ratio of Roflumilast Concentration to PDE4 IC50 ([2]; AH, 0.10% BID days 1-4, single dose day 5, 0.5 hrs post dose): 53×
Ratio of Roflumilast Concentration to PDE4 IC50 ([2]; AH, 0.10% BID days 1-4, single dose day 5, 8 hrs post dose): 0×
Ratio of Roflumilast Concentration to PDE4 IC50 ([2]; AH, 0.30% TID days 1-4, single dose day 5, 0.5 hrs post dose): 143×
Ratio of Roflumilast Concentration to PDE4 IC50 ([2]; AH, 0.30% TID days 1-4, single dose day 5, 8 hrs post dose): 4×
Ratio of Roflumilast Concentration to PDE4 IC50 ([2]; AH, 1.00% TID days 1-4, single dose day 5, 0.5 hrs post dose): 476×
Ratio of Roflumilast Concentration to PDE4 IC50 ([2]; AH, 1.00% TID days 1-4, single dose day 5, 8 hrs post dose): 10×
Ratio of Roflumilast Concentration to PDE4 IC50 ([2]; Cornea, 0.10% BID days 1-4, single dose day 5, 0.5 hrs post dose): 2286×
Ratio of Roflumilast Concentration to PDE4 IC50 ([2]; Cornea, 0.10% BID days 1-4, single dose day 5, 8 hrs post dose): 509×
tissue levels relative to the IC50 level ([2]; ICB, AH, and retina/choroid/RPE, 0.3% and 1% TID): strong elevation in tissue levels above the IC50 level
Ratio of Roflumilast Concentration to PDE4 IC50 ([2]; ICB, 0.10% BID days 1-4, single dose day 5, 0.5 hrs post dose): 66×
Ratio of Roflumilast Concentration to PDE4 IC50 ([2]; ICB, 0.10% BID days 1-4, single dose day 5, 8 hrs post dose): 2×
Ratio of Roflumilast Concentration to PDE4 IC50 ([2]; ICB, 0.30% TID days 1-4, single dose day 5, 0.5 hrs post dose): 247×
Ratio of Roflumilast Concentration to PDE4 IC50 ([2]; ICB, 0.30% TID days 1-4, single dose day 5, 8 hrs post dose): 9×
Ratio of Roflumilast Concentration to PDE4 IC50 ([2]; ICB, 1.00% TID days 1-4, single dose day 5, 0.5 hrs post dose): 534×
Ratio of Roflumilast Concentration to PDE4 IC50 ([2]; ICB, 1.00% TID days 1-4, single dose day 5, 8 hrs post dose): 22×
Ratio of Roflumilast Concentration to PDE4 IC50 ([2]; RET/CHOR, 0.10% BID days 1-4, single dose day 5, 0.5 hrs post dose): 15×
Ratio of Roflumilast Concentration to PDE4 IC50 ([2]; RET/CHOR, 0.10% BID days 1-4, single dose day 5, 8 hrs post dose): 5×
Ratio of Roflumilast Concentration to PDE4 IC50 ([2]; RET/CHOR, 0.30% TID days 1-4, single dose day 5, 0.5 hrs post dose): 91×
Ratio of Roflumilast Concentration to PDE4 IC50 ([2]; RET/CHOR, 0.30% TID days 1-4, single dose day 5, 8 hrs post dose): 14×
Ratio of Roflumilast Concentration to PDE4 IC50 ([2]; RET/CHOR, 1.00% TID days 1-4, single dose day 5, 0.5 hrs post dose): 167×
Ratio of Roflumilast Concentration to PDE4 IC50 ([2]; RET/CHOR, 1.00% TID days 1-4, single dose day 5, 8 hrs post dose): 52×
duration of terminal level therapeutic concentrations covering the relevant IC50 ([2]; cornea, 0.1% BID four days plus single dose day 5, FIG. 5): ~24 h
saturation concentration [3]: 6 µg/mL
ocular pigment binding [4]: medium to high
tolerability [5]: well tolerated at all concentrations
IC50 of t-cells for the PDE4 A, B, D targets [6]: 0.07 ng/mL
tolerability [7]: well tolerated at all concentrations
major clinical or pathological findings in life or post-mortem ([8]; 0.1%, 0.3%, 1% TID topical ocular, 13 weeks plus 4 week recovery): no major test article related findings
systemic adverse effect on the eye or other organs (ophthalmic and other exams) ([8]; 0.1%, 0.3%, 1.0% w/v TID): little to no systemic adverse effect
body weight ([8]; all concentrations TID, compared to vehicle-based placebo, FIG. 11): did not lose weight
central corneal thickness ([8]; all treatment groups over the duration of the study, FIG. 13): substantially consistent for all treatment groups
intraocular pressure ([8]; all treatment groups, only transient changes seen sporadically, FIG. 12): substantially the same for all treatment groups
